According to US20070032458A1, “Compound having activity for inhibiting dioxin toxicity, pharmaceutical composition comprising the compound and method for treating disease resulting from dioxin toxicity using the compound” (priority 2005, published 2007):
Read-outs that look alike come from different tables or passages of the source.

How the values were obtained:
[1] = system: Cytochrome P450 enzyme activity (ethoxyresorufin-O-deethylase activity); assay: Dioxin-induced EROD (cytochrome P450 enzyme) activity inhibition in Hep G2 cells; format: cell-based; conditions: Homo sapiens, read-out: Dioxin-induced EROD activity inhibition IC50
Procedure: (§1) Hep G2 cell that is a human hepatocarcinoma cell line was cultured in an incubator with a culture medium of Dulbecco's Modified Eagle Medium (DMEM) containing 10% of Fetal Bovine Serum (FBS) at 37° C. under an atmosphere of 5% of CO2.
1×104 of the cultured human hepatocarcinoma cells were placed into wells of a […]. After 24 hours, the cells were treated with a solution in which compounds represented by formulae 2 through 8 (obtained from Chembridge Corporation, San Diego, Calif.) were dissolved in dimethyl sulfoxide (DMSO) in a concentration of 0.1%. After one hour, the cells were treated with 3 nM of 2,3,7,8-tetrachlorodibenzo-p-dioxin (obtained from Cambridge Isotope Laboratory, Andover, Mass., U.S.A.). Cytochrome P450 enzyme activity was measured after 24 hours and the measured activity was evaluated by measuring ethoxyresorufin-O-deethylase activity (EROD, Ciolino et al, 1998).

[2] = system: cytochrome P450 1A1; assay: Western blot of dioxin-induced cytochrome P450 1A1 expression in hepatocarcinoma cells; format: cell-based, human
Procedure: as §1
3×10^5 of the cultured human hepatocarcinoma cells were placed into tissue culture plates and cultured for 24 hours. After 24 hours, the cells were treated with a solution in which Compound 2 (obtained from Chembridge Corporation, San Diego, Calif.) was dissolved in dimethyl sulfoxide (DMSO) in a concentration of 0.1%. After one hour, the cells were treated with 3 nM of 2,3,7,8-tetrachlorodibenzo-p-dioxin (obtained from Cambridge Isotope Laboratory, Andover, Mass., U.S.A.). After 24 hours, the culture medium was removed by suction and the cells were washed with phosphate buffer solution. Then the cells were lysed and the protein was quantified.
In FIG. 1, flavone that has been widely reported to inhibit dioxin toxicity even though it increases dioxin toxicity at high concentrations was used as a positive control group. FIG. 1 illustrates Western blot analysis of cells treated with Compound 2 and flavone.

[3] = target: T1, dioxin receptor (Homo sapiens, UniProt P35869); assay: Inhibition of 3[H]-dioxin binding to its receptor in hepatocarcinoma cell cytoplasm (hydroxylapatite)
T1 construct: endogenous in cells; host or cells: hepatocarcinoma cells (cytoplasm fraction)
T1 sequence (P35869 11-848): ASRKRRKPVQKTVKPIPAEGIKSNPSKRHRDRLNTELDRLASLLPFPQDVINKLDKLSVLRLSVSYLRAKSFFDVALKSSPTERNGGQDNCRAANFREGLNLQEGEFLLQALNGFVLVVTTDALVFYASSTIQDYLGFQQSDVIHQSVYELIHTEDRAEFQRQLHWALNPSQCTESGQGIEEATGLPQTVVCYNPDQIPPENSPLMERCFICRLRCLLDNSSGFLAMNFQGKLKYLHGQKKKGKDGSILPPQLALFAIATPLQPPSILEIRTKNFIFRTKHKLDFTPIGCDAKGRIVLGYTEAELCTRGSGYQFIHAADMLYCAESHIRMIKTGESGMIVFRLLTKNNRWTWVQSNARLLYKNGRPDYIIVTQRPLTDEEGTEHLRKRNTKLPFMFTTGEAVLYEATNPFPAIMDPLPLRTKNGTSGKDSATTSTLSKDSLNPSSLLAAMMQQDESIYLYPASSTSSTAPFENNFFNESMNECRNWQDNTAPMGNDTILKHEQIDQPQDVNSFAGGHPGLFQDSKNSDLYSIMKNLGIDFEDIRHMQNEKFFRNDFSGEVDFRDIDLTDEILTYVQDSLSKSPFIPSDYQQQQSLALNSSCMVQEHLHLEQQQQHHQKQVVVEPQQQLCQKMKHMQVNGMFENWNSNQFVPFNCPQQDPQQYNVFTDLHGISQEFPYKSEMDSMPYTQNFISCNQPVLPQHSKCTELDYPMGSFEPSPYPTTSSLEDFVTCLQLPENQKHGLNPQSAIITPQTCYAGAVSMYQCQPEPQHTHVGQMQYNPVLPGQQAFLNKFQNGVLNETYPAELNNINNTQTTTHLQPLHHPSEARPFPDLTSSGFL
Procedure: Compound 2 and 3[H]-dioxin were added to cytoplasm of hepatocarcinoma cells and analysis on binding of ligand-receptor was performed using hydroxylapatite. […] The results are illustrated in FIG. 2.
FIG. 2 illustrates the ability in percentage of Compound 2 to inhibit the binding of 3[H]-dioxin to its receptor.

Structure (SMILES) | IC50 ([1]; HepG2, 24 h) [nM] | further results
Cc1ccccc1N=Nc1ccc(NC(=O)c2ccnn2C)c(C)c1 [Compound 2] | 30 ± 2 | expression of cytochrome P450 1A1 that is increased by dioxin ([2]; human hepatocarcinoma cells, 3 nM dioxin, 24 hours, Western blot): inhibited expression of cytochrome P450 1A1; effect in decreasing the amount of expressed cytochrome P450 enzyme ([2]; various concentrations, FIG. 1): excellent effect; binding ability of 3[H]-dioxin to its receptor with increasing concentration ([3]; Compound 2 at 0.1, 1 and 10 μM, FIG. 2): decreased as the concentration of Compound 2 increased; binding of 3[H]-dioxin to its receptor ([3]; cytoplasm of hepatocarcinoma cells, hydroxylapatite): inhibited the binding
CC(=O)N(C(C)=O)c1ccc(N=Nc2ccccc2C)cc1C [Compound 3] | 75 ± 4 | –
CCCCNC(=O)Nc1ccc(N=Nc2ccccc2C)cc1C [Compound 8] | 450 ± 75 | –
Cc1ccccc1N=Nc1ccc(NC(=O)C(C)C)c(C)c1 [Compound 5] | 110 ± 7 | –
Cc1cc(N=Nc2ccccc2C)ccc1N [Compound 7] | – | IC50 ([1]; HepG2, Hep G2 cells, 3 nM 2,3,7,8-tetrachlorodibenzo-p-dioxin, measured after 24 hours): 215 ± 42 nM
Cc1ccccc1N=Nc1ccc(NC(=O)c2cccs2)c(C)c1 [Compound 6] | 153 ± 10 | –
Cc1ccccc1N=Nc1ccc(NC(=O)c2ccc(F)cc2)c(C)c1 [Compound 4] | 105 ± 11 | –
